ChEMBL document CHEMBL1201862, “PubChem BioAssay data set” (2004)
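Compound exposure: 48 hours, 5 concentrations, 96-well plates. At the GI50, growth is halved.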 Calls of active or inactive are those of the source. Rule as the data show it: active = GI50 up to about 1.1 µM and inactive = higher.

What was measured:
Test in all cases: growth of human tumour cells (NCI), 48 h
A549 = system: A549
CCRF-CEM = system: CCRF-CEM
Hs-578T = system: Hs-578T
KM12 = system: KM12
M14 = system: M14
MDA-MB-231 = system: MDA-MB-231
NCI-H23 = system: NCI-H23
NCI/ADR-RES = system: NCI/ADR-RES
OVCAR-5 = system: OVCAR-5
SK-MEL-5 = system: SK-MEL-5
SNB-75 = system: SNB-75
SR = system: SR
T47D = system: T47D
HOP-92 = system: HOP-92
SK-MEL-2 = system: SK-MEL-2
DLD-1 = system: DLD-1
DMS-114 = system: DMS-114
DMS-273 = system: DMS-273
HOP-18 = system: HOP-18
M19-MEL = system: M19-MEL

Measured: GI50

N#Cc1c(NC(=S)NC(=O)c2ccccc2)nc2c(c1-c1ccccc1)CCC2
inactive: A549 > 100 µM | CCRF-CEM > 100 µM | Hs-578T 39.8 µM | KM12 > 100 µM | M14 > 100 µM | MDA-MB-231 43.9 µM | NCI-H23 > 100 µM | NCI/ADR-RES > 100 µM | OVCAR-5 > 100 µM | SK-MEL-5 73.3 µM | SNB-75 22.7 µM | SR > 100 µM | T47D 25.5 µM

Cc1cc(C)c2c(O)cc(-c3ccc(F)cc3)nc2n1
inactive: A549 44.6 µM | CCRF-CEM 26.7 µM | HOP-92 29.9 µM | Hs-578T 69 µM | KM12 20.7 µM | M14 45.7 µM | MDA-MB-231 63 µM | NCI-H23 38.6 µM | NCI/ADR-RES 47.6 µM | OVCAR-5 80.5 µM | SK-MEL-2 38.7 µM | SNB-75 27.2 µM | SR 23.3 µM | T47D 37.8 µM

CC(=O)OCC1=C(C(=O)O)C(c2ccc3c(c2)OCO3)c2cc3c(cc2O1)OCO3 (stereo unspecified)
inactive: A549 > 100 µM | CCRF-CEM > 100 µM | DLD-1 > 100 µM | DMS-114 > 100 µM | DMS-273 > 100 µM | HOP-18 > 100 µM | HOP-92 70.1 µM | M14 > 100 µM | M19-MEL > 100 µM | NCI-H23 > 100 µM | SK-MEL-5 > 100 µM | SNB-75 53.8 µM

Cc1ccc(C2C(C(=O)C(C)(C)C)N2S(=O)(=O)c2ccc(C)cc2)cc1 (stereo unspecified)
inactive: A549 40.3 µM | CCRF-CEM 22.6 µM | Hs-578T 28.7 µM | KM12 34.5 µM | M14 17.8 µM | MDA-MB-231 19.8 µM | NCI-H23 23.7 µM | NCI/ADR-RES 23.4 µM | OVCAR-5 21.3 µM | SK-MEL-2 46.6 µM | SNB-75 19.5 µM | T47D 21 µM

Cc1ccc(C(C)(C)C[P+](C)(c2ccccc2)c2ccccc2)cc1
inactive: A549 11.6 µM | CCRF-CEM 9.08 µM | DLD-1 27.2 µM | DMS-114 5.25 µM | DMS-273 4.89 µM | HOP-18 6.43 µM | HOP-92 1.97 µM | KM12 4.71 µM | M19-MEL 4.52 µM | NCI-H23 11.7 µM | NCI/ADR-RES > 100 µM | OVCAR-5 18.1 µM | SK-MEL-2 4.21 µM | SK-MEL-5 3.42 µM | SNB-75 8.18 µM

COc1ccc(C[C@H](N)C(=O)N2C[C@@H](CO)C[C@@H](n3ccc(=O)[nH]c3=O)C2)cc1
inactive: A549 > 100 µM | CCRF-CEM > 100 µM | DLD-1 > 100 µM | DMS-114 > 100 µM | DMS-273 > 100 µM | HOP-18 > 100 µM | HOP-92 > 100 µM | KM12 > 100 µM | M14 > 100 µM | M19-MEL > 100 µM | NCI-H23 > 100 µM | OVCAR-5 > 100 µM | SK-MEL-2 > 100 µM | SK-MEL-5 > 100 µM | SR > 100 µM
